#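 Cells were grown in 96-well plates and exposed to each compound for 48 hours at five concentrations; endpoints were interpolated linearly between bracketing concentrations, or set to the highest concentration if not reached. GI50: concentration for 50% inhibition of growth.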 Activity calls are given as the source filed them. No stated cut-off is given here; in the data, active = GI50 up to about 1.1 µM and inactive = higher.
# What was measured:
# Assay in all cases: NCI anticancer screen, dose series, 48 h
# A498 = test system: A498
# CCRF-CEM = test system: CCRF-CEM
# COLO 205 = test system: COLO 205
# DU-145 = test system: DU-145
# EKVX = test system: EKVX
# M14 = test system: M14
# MDA-MB-231 = test system: MDA-MB-231
# NCI-H226 = test system: NCI-H226
# NCI-H522 = test system: NCI-H522
# OVCAR-3 = test system: OVCAR-3
# OVCAR-4 = test system: OVCAR-4
# OVCAR-5 = test system: OVCAR-5
# PC-3 = test system: PC-3
# SF-295 = test system: SF-295
# SN12C = test system: SN12C
# SNB-75 = test system: SNB-75
# SW-620 = test system: SW-620
# TK-10 = test system: TK-10
# UO-31 = test system: UO-31
# DLD-1 = test system: DLD-1
Structure (SMILES),GI50 (A498),GI50 (CCRF-CEM),GI50 (COLO 205),GI50 (DU-145),GI50 (EKVX),GI50 (M14),GI50 (MDA-MB-231),GI50 (NCI-H226),GI50 (NCI-H522),GI50 (OVCAR-3),GI50 (OVCAR-4),GI50 (OVCAR-5),GI50 (PC-3),GI50 (SF-295),GI50 (SN12C),GI50 (SNB-75),GI50 (SW-620),GI50 (TK-10),GI50 (UO-31),GI50 (DLD-1)
Clc1ccc(C2ON=C(c3ccccc3)N2C23CC4CC(CC(C4)C2)C3)c(Cl)c1 (stereo unspecified),> 10 µM (inactive),> 10 µM (inactive),> 10 µM (inactive),> 10 µM (inactive),> 10 µM (inactive),> 10 µM (inactive),> 10 µM (inactive),> 10 µM (inactive),> 10 µM (inactive),> 10 µM (inactive),> 10 µM (inactive),> 10 µM (inactive),> 10 µM (inactive),> 10 µM (inactive),> 10 µM (inactive),> 10 µM (inactive),> 10 µM (inactive),> 10 µM (inactive),> 10 µM (inactive),
CC(C)(C)NNC(=O)/C(=C/c1ccc([N+](=O)[O-])cc1)NC(=O)c1ccccc1,> 100 µM (inactive),31.3 µM (inactive),29 µM (inactive),,> 100 µM (inactive),> 100 µM (inactive),,24.2 µM (inactive),24.2 µM (inactive),> 100 µM (inactive),75 µM (inactive),> 100 µM (inactive),,> 100 µM (inactive),> 100 µM (inactive),> 100 µM (inactive),,> 100 µM (inactive),> 100 µM (inactive),43.5 µM (inactive)
N#CCC(=O)N1CCCCCCC1,> 100 µM (inactive),> 100 µM (inactive),14.1 µM (inactive),,> 100 µM (inactive),> 100 µM (inactive),,,,,> 100 µM (inactive),> 100 µM (inactive),,> 100 µM (inactive),> 100 µM (inactive),,5.87 µM (inactive),> 100 µM (inactive),> 100 µM (inactive),> 100 µM (inactive)
CCN(CC)Cc1cc(Nc2c3ccccc3nc3c2[nH]c2ccccc23)ccc1O,1.61 µM (inactive),,1.02 µM (active),,2.45 µM (inactive),1.7 µM (inactive),,1.85 µM (inactive),1.13 µM (inactive),,1.39 µM (inactive),1.22 µM (inactive),,1.37 µM (inactive),1.67 µM (inactive),1.59 µM (inactive),0.912 µM (active),3.61 µM (inactive),1.52 µM (inactive),1.25 µM (inactive)
COc1cccc(CCn2c(N)c(-c3cc(Cl)cc(Cl)c3)c3ccc([N+](=O)[O-])cc3c2=O)c1,3.56 µM (inactive),0.787 µM (active),2.03 µM (inactive),2.7 µM (inactive),4.69 µM (inactive),3.95 µM (inactive),4.68 µM (inactive),3.67 µM (inactive),2.92 µM (inactive),3.13 µM (inactive),7.55 µM (inactive),18.1 µM (inactive),3.1 µM (inactive),3.73 µM (inactive),5 µM (inactive),4.39 µM (inactive),4.04 µM (inactive),4.28 µM (inactive),2.68 µM (inactive),
COc1ccc(C(=O)C/C(=N/NC(N)=S)C(=O)Nc2ccccc2)cc1,> 100 µM (inactive),> 100 µM (inactive),> 100 µM (inactive),,> 100 µM (inactive),> 100 µM (inactive),,> 100 µM (inactive),,> 100 µM (inactive),31.9 µM (inactive),> 100 µM (inactive),,> 100 µM (inactive),> 100 µM (inactive),99.3 µM (inactive),> 100 µM (inactive),> 100 µM (inactive),> 100 µM (inactive),> 100 µM (inactive)
COC(=O)C1=C(O)C(O)=C(C(=O)OC)CC1,> 100 µM (inactive),> 100 µM (inactive),> 100 µM (inactive),,> 100 µM (inactive),> 100 µM (inactive),,> 100 µM (inactive),> 100 µM (inactive),> 100 µM (inactive),> 100 µM (inactive),> 100 µM (inactive),,> 100 µM (inactive),> 100 µM (inactive),> 100 µM (inactive),> 100 µM (inactive),> 100 µM (inactive),> 100 µM (inactive),> 100 µM (inactive)
COC(=O)C1=C(C)C(=O)[C@H]2C(C(=O)OC)CCCC[C@@H]12 (stereo partly specified),> 100 µM (inactive),40.5 µM (inactive),> 100 µM (inactive),,> 100 µM (inactive),> 100 µM (inactive),,> 100 µM (inactive),29.4 µM (inactive),,> 100 µM (inactive),> 100 µM (inactive),,> 100 µM (inactive),> 100 µM (inactive),> 100 µM (inactive),> 100 µM (inactive),> 100 µM (inactive),> 100 µM (inactive),> 100 µM (inactive)
